Results as given in patent US20030039697A1, “Matrices containing nitric oxide donors and reducing agents and their use” (priority 2002, published 2003).

Tested on: E. coli
Format: cell-based

## N[C@@H](CCC(=O)N[C@@H](CSN=O)C(=O)NCC(=O)O)C(=O)O [GSNO, S-nitroso-L-glutathione]
  growth of bacteria (E. coli) with coated catheter segments: inhibits growth of bacteria
